The values that follow come from patent US20150376235A1, “Peptides for the Treatment of Immune Reconstitution Inflammatory Syndrome (IRIS) and Related Diseases” (priority 2014, published 2015).

Non-standard residues stand in square brackets, D forms with d. No end group written: not given here.

For data set [1], the system named is inflammatory cytokines. To be noted: Hu; cited from earlier work.
The subject of data set [2] is rats with partial ligation of the sciatic nerve. The conditions noted are these: cited from earlier work.
Data set [3] relates to inflammatory cytokines, chemokines, and receptors. To be noted: Rat; oral gavage 0.05-1 mg/kg, 7 days; cited from earlier work.
Data set [4] has as its target CCR2 (Homo sapiens, UniProt P41597). The conditions noted are these: 30 min pretreatment; human MCP-1 50 ng/mL, 90 min; cited from earlier work.
Data set [5] addresses CCR5 (Homo sapiens, UniProt P51681). The conditions noted are these: 30 min pretreatment; human MIP-1β 50 ng/mL, 90 min; cited from earlier work.
Data set [6] can be described thus: Pharmacokinetic study following intravenous and oral administration, LC-MS/MS of plasma. The format is in vivo, male Sprague Dawley rat. On the procedure: A pharmacokinetic study of all-D [TTNYT] (RAP-103) (SEQ ID NO:2) following intravenous and oral administration was conducted at a target dose level of 1 mg/kg in the male Sprague Dawley rat. The concentration of RAP-103 in each plasma and brain sample was measured using a suitable LC-MS/MS assay. The assay used was a research grade assay (RGA-1) which was established by assessing the accuracy, precision and the linearity of the method. Plasma concentrations generated were used to evaluate the pharmacokinetic parameters of all-D-TTNYT (RAP-103).
The dose formulation was administered intravenously to multiple animals as a slow bolus over ca 30 s via the tail vein and to a different group of animals orally via gastric gavage at a target dose volume of 1 mL/kg, to achieve a target dose level of 1 mg/kg. The dose volume administered was calculated according to the bodyweight of the animal on the day of dosing. The weight of administered dose was recorded. […] Results expressed as ng/mL

For data set [7], the system named is inflammatory cytokines, chemokines, and receptors. The conditions noted are these: Rat; oral gavage 0.05-1 mg/kg, 7 days. The text has this: The specific experimental details are provided in Padi, 2012.
The target of data set [8] is T1, CCL2 (MCP-1) (Homo sapiens, UniProt P41597).
T1 construct: endogenous in cells; host or cells: human monocytes
T1 sequence (P41597 1-360 isoform P41597-2): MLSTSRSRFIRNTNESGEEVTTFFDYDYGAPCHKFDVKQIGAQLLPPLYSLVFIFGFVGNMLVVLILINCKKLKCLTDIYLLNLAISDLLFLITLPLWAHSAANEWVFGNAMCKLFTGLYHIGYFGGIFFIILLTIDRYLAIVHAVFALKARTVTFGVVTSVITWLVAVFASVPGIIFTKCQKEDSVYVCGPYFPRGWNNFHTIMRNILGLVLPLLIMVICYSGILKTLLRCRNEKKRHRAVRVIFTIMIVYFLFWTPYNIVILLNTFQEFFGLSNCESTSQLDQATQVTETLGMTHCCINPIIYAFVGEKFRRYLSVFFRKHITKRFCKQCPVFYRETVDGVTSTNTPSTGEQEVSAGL
The data set can be described thus: Blocking CCL2 (MCP-1) chemotaxis at low concentration (FIG. 3). The format is cell-based. To be noted: compounds at 10^−14 M. The text has this: FIG. 3 illustrates the effects of several all-D amino acid peptides in blocking CCL2 (MCP-1) chemotaxis at low concentration. The amino acid sequences of these peptides are: SSTYR (SEQ ID NO:3), TTSYT (SEQ ID NO:4) and NTSYR (SEQ ID NO:7)
In order to show the generalizability of the all-D-amino acid modifications we synthesized additional examples and tested them for antagonism of chemokines receptors implicated in the subject diseases, FIG. 3
Additional All-D-(Pepntapeptides) from V2 Region Block CCR5/CCR2 Human Monocyte Chemotaxis
In FIG. 3, the effects of RAPs in blocking CCL2 (MCP-1) chemotaxis was illustrated.

Data set [9] concerns the target T2, MCP-1/CCR2 (Homo sapiens, UniProt P41597).
T2 construct: endogenous in cells; host or cells: human monocytes
The experiment in a line: MCP-1/CCR2 elicited β-integrin-mediated adhesion of human monocytes to human fibronectin (FIG. 5). To be noted: 10 minutes pretreatment. The format is cell-based. How it is done: The results are of interest as approved treatments for MS include the immunosupressive monoclonal antibody therapy “Tysabri”, which blocks T cell binding to cellular integrins, and thereby infiltration of inflammatory cells into brains of MS patients.
All-D-(IDNYT) Inhibition of Human Monocyte and THP-1 Cell β-Integrin-Mediated Adhesion to hu-Fibronectin
Human monocytes were treated with the indicated doses of all-D-(IDNYT) for 10 minutes prior to adherence to the β-integrin human fibronectin. Data is the average of two separate experiments, conducted with triplicate determinations. Data are presented as Mean±SEM of the normalized adherence response from two experiments. The IC50 for inhibition of MCP-1 stimulated adherence was generated using a nonlinear inhibition curve fit in GraphPad Prism Version 5.0.

For data set [10], the target named is T3, CCR2 (MCP-1) (Homo sapiens, UniProt P41597).
T3 construct: Purified human monocytes were treated with 20 pM of All-D-pentapeptides for 30 minutes; endogenous in cells; host or cells: purified human monocytes
The data set can be described thus: CCR2 (MCP-1) elicited chemotaxis of human monocytes, all-D-pentapeptides (FIG. 4). The format is cell-based. The conditions noted are these: 20 pM peptide 30 minutes; MCP-1 0.6 nM, 2 hours. On the procedure: Purified human monocytes were treated with 20 pM of All-D-pentapeptides for 30 minutes prior to chemotaxis against human MCP-1 (0.6 nM) for 2 hours. […] A representative experiment is shown comprising triplicate determinations and is presented as relative fluorescence units, Mean±SEM.

Data set [11] deals with TLR4 (human, UniProt O00206 24-839). The experiment in a line: cell-based or functional assay.
Sequence of TLR4 (O00206 24-839): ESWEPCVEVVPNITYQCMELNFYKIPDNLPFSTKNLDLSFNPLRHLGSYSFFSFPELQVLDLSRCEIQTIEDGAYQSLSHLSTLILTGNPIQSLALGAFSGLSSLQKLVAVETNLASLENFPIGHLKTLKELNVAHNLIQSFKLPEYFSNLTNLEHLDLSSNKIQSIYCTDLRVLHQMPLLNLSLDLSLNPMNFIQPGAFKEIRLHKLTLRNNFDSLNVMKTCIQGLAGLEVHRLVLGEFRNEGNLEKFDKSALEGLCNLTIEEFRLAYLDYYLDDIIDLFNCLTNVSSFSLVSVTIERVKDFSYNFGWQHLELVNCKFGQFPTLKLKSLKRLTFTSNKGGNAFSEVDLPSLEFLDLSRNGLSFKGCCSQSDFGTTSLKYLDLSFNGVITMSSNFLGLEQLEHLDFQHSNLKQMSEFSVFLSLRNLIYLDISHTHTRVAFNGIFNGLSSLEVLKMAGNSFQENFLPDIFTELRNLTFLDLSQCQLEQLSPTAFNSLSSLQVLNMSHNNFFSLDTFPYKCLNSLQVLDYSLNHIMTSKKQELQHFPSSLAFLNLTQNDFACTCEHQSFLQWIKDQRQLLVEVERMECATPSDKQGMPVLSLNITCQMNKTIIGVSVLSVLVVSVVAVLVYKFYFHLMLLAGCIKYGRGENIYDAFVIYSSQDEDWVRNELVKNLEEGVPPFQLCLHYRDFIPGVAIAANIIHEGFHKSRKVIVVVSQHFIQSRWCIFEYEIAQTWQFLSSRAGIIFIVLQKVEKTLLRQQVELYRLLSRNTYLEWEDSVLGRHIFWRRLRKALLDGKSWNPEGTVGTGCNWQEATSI

T3 sequence (P41597 whole entry): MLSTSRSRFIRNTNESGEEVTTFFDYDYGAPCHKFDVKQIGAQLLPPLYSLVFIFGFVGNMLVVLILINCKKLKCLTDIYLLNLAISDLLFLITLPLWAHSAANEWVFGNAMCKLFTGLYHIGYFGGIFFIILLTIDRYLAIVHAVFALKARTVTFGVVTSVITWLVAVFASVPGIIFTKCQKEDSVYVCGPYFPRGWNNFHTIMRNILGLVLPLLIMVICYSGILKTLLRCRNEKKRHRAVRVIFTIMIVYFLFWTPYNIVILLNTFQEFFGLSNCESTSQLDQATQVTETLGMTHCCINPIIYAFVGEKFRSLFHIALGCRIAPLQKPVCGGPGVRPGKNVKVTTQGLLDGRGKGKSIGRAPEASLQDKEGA
T2 sequence (P41597 whole entry): as above
Sequence of CCR2 (P41597 whole entry): as above
Sequence of CCR5 (P51681 whole entry): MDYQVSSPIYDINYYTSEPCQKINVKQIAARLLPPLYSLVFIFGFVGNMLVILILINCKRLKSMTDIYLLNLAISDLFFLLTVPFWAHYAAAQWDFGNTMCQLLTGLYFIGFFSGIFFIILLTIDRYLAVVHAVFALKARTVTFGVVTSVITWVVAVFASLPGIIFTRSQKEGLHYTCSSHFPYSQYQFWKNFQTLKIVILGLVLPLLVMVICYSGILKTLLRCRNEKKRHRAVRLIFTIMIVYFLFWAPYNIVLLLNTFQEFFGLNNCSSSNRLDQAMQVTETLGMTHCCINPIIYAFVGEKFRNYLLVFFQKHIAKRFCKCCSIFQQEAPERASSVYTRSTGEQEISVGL

Regarding D-ala1-peptide T-amide [RAP-101], in data set [1], the IL-1 change entry is listed as “decrease”, the IL-6 change result is “decrease”, the IL-8 change entry is recorded as “decrease” and the TNFα change result was “decrease”.

For the molecule `C[C@H](O)[C@@H](N)C(=O)N[C@@H](C(=O)N[C@H](CC(N)=O)C(=O)N[C@H](Cc1ccc(O)cc1)C(=O)N[C@@H](C(=O)O)[C@H](C)O)[C@H](C)O` [RAP-103, All-D-TTNYT], in [2] (0.2-1 mg/kg, days 8 to 12), the already established hypersensitivity result is reported as “reverses”. In addition, in data set [2] (oral 0.05-1 mg/kg for 7 days), the “development of thermal hyperalgesia” value was “inhibits the development” and the mechanical allodynia entry is reported as “fully prevents”. Besides, in data set [2] (peripheral nerve injury), the monocyte infiltration entry is “reduce” and the spinal microglial activation entry was “reduce”. Besides, in data set [3], the IL-1β change entry is recorded as “decrease” and the IL-6 change entry is listed as “decrease”. In addition, in data set [4], the “blocking of MCP-1-elicited chemotaxis” value was “potently blocking”. For the same molecule, the “blocking of MIP-1β-elicited chemotaxis” value in data set [5] is on record as “potently blocking”. For the same molecule, the “time of peak levels in plasma” value in data set [6] (1 mg/kg, male rat) was in the range of 10 to 15 min. Further, in data set [6] (intravenous and oral, 1 mg/kg, male rat), the “tolerability of dose administrations” value is on record as “well tolerated”. Also, in data set [6] (male, Sprague-Dawley, rat, plasma, po, 1 mg/kg, oral 1 mg/kg, 0.25 h, individual animals 004M, 005M, 006M, read-out: plasma concentration), the level at 0.25 h amounted to 6.42 ng/mL. Moreover, in data set [6] (male, Sprague-Dawley, rat, plasma, po, 1 mg/kg, oral 1 mg/kg, 0.5 h, individual animals 004M, 005M, 006M, read-out: plasma concentration), the level at 0.5 h was 10.2 ng/mL. The level at 2 h in data set [6] (male, Sprague-Dawley, rat, plasma, po, 1 mg/kg, oral 1 mg/kg, 2 h, individual animals 004M, 005M, 006M, read-out: plasma concentration) came to 12 ng/mL. Further, the level at 4 h in data set [6] (male, Sprague-Dawley, rat, plasma, po, 1 mg/kg, oral 1 mg/kg, 4 h, individual animals 004M, 005M, 006M, read-out: plasma concentration) was 9.09 ng/mL. Also, the level at 8 h in data set [6] (male, Sprague-Dawley, rat, plasma, po, 1 mg/kg, oral 1 mg/kg, 8 h, individual animals 004M, 005M, 006M, read-out: plasma concentration) is 6.67 ng/mL. Also, the plasma concentration entry in [6] (oral 1 mg/kg, male rat, 0.083 h, individual animals 004M, 005M, 006M) is recorded as “<LLOQ”. Further, in [6] (oral 1 mg/kg, male rat, 0.25 h, individual animals 004M, 005M, 006M, 1 mg/kg), the plasma concentration result is given as “<LLOQ”. In addition, the plasma concentration entry in [6] (oral 1 mg/kg, male rat, 1 h, individual animals 004M, 005M, 006M) was “<LLOQ”. Also, in data set [6] (oral 1 mg/kg, male rat, 2 h, individual animals 004M, 005M, 006M, 1 mg/kg), the plasma concentration entry was “<LLOQ”. Besides, in [6] (oral 1 mg/kg, male rat, 4 h, individual animals 004M, 005M, 006M, 1 mg/kg), the plasma concentration entry was “<LLOQ”. Also, in [6] (oral 1 mg/kg, male rat, 8 h, individual animals 004M, 005M, 006M, 1 mg/kg), the plasma concentration entry is reported as “<LLOQ”. In addition, the plasma concentration result in data set [6] (oral 1 mg/kg, male rat, 12 h, individual animals 004M, 005M, 006M) is “<LLOQ”. In addition, in [7], the CCL2 change result is “decrease”, the CCL3 change entry is “decrease”, the CCR2 change result is given as “decrease” and the CCR5 change entry is reported as “decrease”. In data set [7], the MCP-1 change entry is given as “decrease”, the MIP-1α change result was “decrease” and the TNFα change result is listed as “decrease”.

With TTSYT ([dT][dT][dS][dY][dT]), the “blocking CCL2 (MCP-1) chemotaxis” value in data set [8] is listed as “retain potency”.

Regarding IDNYT ([dI][dD][dN][dY][dT]), the “blocking of MCP-1 elicited adhesion to human fibronectin” value in data set [9] is reported as “potently blocking”. For the same molecule, in data set [10], the “inhibition of CCR2 (MCP-1) elicited chemotaxis” value (shortened to “inhibition of CCR2”) is “potently block”.

As for NTSYR ([dN][dT][dS][dY][dR]), in [8], the “blocking CCL2 (MCP-1) chemotaxis” value was “retain potency”.

SSTYR ([dS][dS][dT][dY][dR]): the “blocking CCL2 (MCP-1) chemotaxis” value in data set [8] is “retain potency”.

“NTSYG ([dN][dT][dS][dY]G; not fully specified (residue 5))”: the “inhibition of CCR2” value in data set [10] was “potently block”.

On to ETWYS ([dE][dT][dW][dY][dS]), for which the “inhibition of CCR2” value in data set [10] is “potently block”.

Regarding NTRYR, the “inhibition of CCR2” value in [10] is given as “potently block”.

B1: all-D[TTNYT] (RAP-103) (peptide)
peptide: [dT][dT][dN][dY][dT]
Regarding B1, in data set [11], the “IC50 for inhibition of LPS-induced TNFα production in monocyte-derived iDC” value was roughly 0.1 pM.
